For one experiment, the target named is T1, BCL-2 (Homo sapiens, UniProt P10415).
T1 construct: endogenous in cells; host or cells: Jurkat (ATCC TIB-152)
Description: Immunoblot degradation of BCL-2 in Jurkat cells. The experiment is classed as cell-based. The following applies: for DC50: 16 h treatment, immunoblot. How it is done:
The data are presented as mean ± s.d. from three replicate cell cultures in a representative experiment for Jurkat cells. h Left, WH244 induces polyubiquitination of WT, K22R BCL-2 and to some extent K17R but not K17/22R BCL-2 in 293T cells. 293T cells were co-transfected as indicated with Flag-BCL−2 WT or mutants and HA-tagged ubiquitin (HA-Ub) plasmids. After 36 h, cells were pretreated with MG132 (10 µM) for 2 h and then treated with or without WH244 (1 μM) for 5 h. The Flag-tagged proteins were immunoprecipitated (IP) and immunoblotted with HA or Flag antibody. Right, The input blot for this assay. Data are a representative of two independent experiments. Source data are provided as Source Data file.
Cells were collected, washed once with ice-cold phosphate-buffered saline, pH 7.2 (PBS, cat. no. 20012027; Thermo Fisher Scientific) and lysed in RIPA lysis buffer (Cat. No. BP-115DG, Boston Bio Products, Ashland, MA, USA) supplemented with protease and phosphatase inhibitor cocktails (Cat. No. PPC1010, Sigma-Aldrich, St. Louis, MO, USA) through sonication. The samples were centrifuged at 15,000 × g for 5 min and the supernatants were transferred into a new tube. The protein concentration in the supernatants was determined using the Pierce BCA protein Assay kit (cat. no. 23225, Thermo Fisher Scientific). The protein concentration was normalized, and the samples were reduced in 4× Laemmli’s SDS-sample buffer (cat. no. BP-110R, Boston Bio Products) and denatured at 95 °C for 5 min. An equal amount of protein samples (20–40 μg per lane) were resolved using precast 4–20% Tris-glycine gels (Mini-PROTEAN TGX, cat. no. 456–1094, Bio-Rad), and resolved proteins were transferred onto 0.2-μm pore size polyvinylidene difluoride (PVDF) blotting membranes (cat. no. LC2002, Thermo Fisher Scientific) using mini trans-blot electrophoretic transfer cell (Bio-Rad). The membranes were blocked with non-fat dry milk (5% wt/vol) in 1×Tris- buffered saline-Tween-20 (TBST) for 1 h at room temperature, and were subsequently probed with primary antibodies at a pre-determined optimal concentration in non-fat dry milk (5% wt/vol in TBST) overnight at 4 °C. The membranes were washed three times (15 min each) in TBST and then incubated with horse radish peroxidase (HRP)-conjugated secondary antibodies for 1 h at room temperature. Following sufficient washing with TBST, the membranes were exposed with ECL Western Blotting Substrate (Bio-Rad), and the signal was detected using the ChemiDoc MP Imaging System (Bio-Rad) and quantified using the ImageJ (v1.53a) software from NIH. Antibodies were purchased from Cell Signaling Technologies (CST) and the dilutions are as follows: BCL-xL (Cat. No. 2762S, 1:1000) and BCL-2 (Cat. No. 2870S, 1:1000). β-actin antibody was purchased from MP Biomedicals (Cat. No. 8691001, 1:20,000).
On the technique in general: Immunoblotting shows a protein as a band on a membrane.

In the next experiment the test system is HeLa cells. Kind of experiment: DIA proteomics in HeLa cells. Type of experiment: cell-based, human. The settings on record: for Off-target effects (two proteomic analyses): TMT (Jurkat) and DIA (HeLa) proteomics. The text has this: Given the somewhat inconclusive nature of the TMT results, we made additional efforts to characterize the on-target and off-target effects of our BCL-xL and BCL-2 dual PROTACs using a different proteomics analysis technique, i.e. the Data-Independent Acquisition (DIA) proteomics approach. This approach can avoid the limitation of TMT-labeling deficiency for some proteins/peptides. Specifically, we conducted DIA proteomics profiling using HeLa cells because these cells are primarily dependent on MCL-1 for survival and thus resistant to apoptosis after BCL-xL and BCL-2 degradation. To our delight, we were able to identify over 7200 proteins, including both BCL-xL and BCL-2 (Supplementary Fig. 10d), using this method.
Cells were lysed in buffer containing 5% SDS/50 mM triethylammonium bicarbonate (TEAB) in the presence of protease and phosphatase inhibitors (Halt; Thermo Scientific) and nuclease (Pierce™ Universal Nuclease for Cell Lysis; Thermo Scientific). Aliquots corresponding to 100 µg protein (EZQ™ Protein Quantitation Kit; Thermo Scientific) were reduced with tris(2-carboxyethyl)phosphine hydrochloride (TCEP), alkylated in the dark with iodoacetamide and applied to S-Traps (mini; Protifi) for tryptic digestion (sequencing grade; Promega) in 50 mM triethylammonium bicarbonate (TEAB). Peptides were eluted from the S-Traps with 0.2% formic acid in 50% aqueous acetonitrile and quantified using Pierce™ Quantitative Fluorometric Peptide Assay (Thermo Scientific). Data-independent acquisition mass spectrometry (DIA-MS) was conducted on a Thermo Scientific Orbitrap Exploris 480 mass spectrometer. […] A pool was made of the three control (DMSO) samples, and 2-µg peptide aliquots were analyzed using gas-phase fractionation and 4-m/z windows (30k resolution for precursor and product ion scans) to create an empirically-corrected DIA chromatogram library[72] by searching against a Prosit-generated predicted spectral library[73] based on the UniProt_Human_ref 9606_20220216 protein sequence database (20,588 sequences; 11,394,277 residues). […]

T1 sequence (P10415 whole entry): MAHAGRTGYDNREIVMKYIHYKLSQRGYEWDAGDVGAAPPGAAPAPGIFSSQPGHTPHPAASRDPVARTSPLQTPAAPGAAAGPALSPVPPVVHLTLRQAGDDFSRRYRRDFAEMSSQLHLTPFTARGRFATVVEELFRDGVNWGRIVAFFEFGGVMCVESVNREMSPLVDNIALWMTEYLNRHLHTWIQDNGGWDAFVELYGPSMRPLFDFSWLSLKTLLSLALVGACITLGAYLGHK

Usually DC50 stands for the concentration at which degradation of the target reaches its halfway point. A higher DC50 goes with a less potent degrader. Molecule `Cc1ncsc1-c1ccc(C(C)NC(=O)C2CC(O)CN2C(=O)C(NC(=O)CCCCCCC(=O)N2CCN(CC3(C)CCC(c4ccc(Cl)cc4)=C(CN4CCN(c5ccc(C(=O)NS(=O)(=O)c6ccc(NC(CCN7CCOCC7)CSc7ccccc7)c(S(=O)(=O)C(F)(F)F)c6)cc5)CC4)C3)CC2)C(C)(C)C)cc1` (stereo not drawn) [753b] displayed a DC50 on BCL-2 (Jurkat cells) of 50 nM. Besides, the “Off-target effects (two proteomic analyses)” value in the experiment on HeLa cells is listed as “limited off-target effects”.

With `Cc1ncsc1-c1ccc([C@H](C)NC(=O)[C@@H]2C[C@@H](O)CN2C(=O)[C@@H](NC(=O)CN2CCN(CC(=O)N3CCN(C[C@]4(C)CCC(c5ccc(Cl)cc5)=C(CN5CCN(c6ccc(C(=O)NS(=O)(=O)c7ccc(N[C@H](CCN8C[C@@H]9C[C@H]8CO9)CSc8ccccc8)c(S(=O)(=O)C(F)(F)F)c7)cc6)CC5)C4)CC3)CC2)C(C)(C)C)cc1` [WH244], on BCL-2 (0.1 μM WH244, Jurkat cells), the “Earliest time at which BCL-2 degradation is seen” value was 1 h and the “Time to nearly complete degradation of BCL-2” value is on record as 6 h. Also, the “Time for BCL-2 level to recover to pretreatment level after removal of degrader” value on BCL-2 (0.1 μM WH244 for 16 h, then fresh medium, Jurkat cells) is 24 to 48 h. The “DC50 fold better than 753b (BCL-2)” value at BCL-2 (Jurkat cells, 16 h) is recorded as around 6.8 fold. Also, half-maximal degradation at BCL-2 (Jurkat cells) (DC50) was put at 7.4 nM. Further, the “Degradation of BCL-xL and BCL-2 by DIA proteomics (comparison)” value in the experiment on HeLa cells (HeLa cells) is recorded as “superior efficacy in the degradation of both proteins”. Further, the “Off-target effects (two proteomic analyses)” value in the experiment with HeLa cells is “limited off-target effects”.
